Data: patent EP4763838A1, “COMPOUND AND USE THEREOF” (Ocean University of China, priority 2023, dated 2025)
Where “and” joins values, the source holds several entries; their conditions need not be identical. Equal values may be shown once. Where a name gives a salt, the structure may show the parent alone. Read-outs that look alike come from different tables or passages of the source.

Key:
E3 ubiquitin ligase CRBN = target: T1, E3 ubiquitin ligase CRBN (Homo sapiens, UniProt Q96SW2); assay: Binding activity to E3 ubiquitin ligase CRBN (HTRF competitive binding with XL665-labeled thalidomide, Cereblon binding kit); conditions: competition with XL665-labeled thalidomide for GST-labelled CRBN protein, 3 h at room temperature
T1 construct: purchased PE (PerkinElmer) 64BDCRBNPEG
Procedure: The binding activity of the compound disclosed in the present patent to the E3 ubiquitin ligase CRBN was determined by competitive binding of the disclosed compound with XL665-labeled thalidomide to the CRBN protein, thereby preventing the occurrence of fluorescence resonance energy transfer (FRET). Accordingly, the binding affinity of the compound to the CRBN protein was determined.
CRBN binding activity test kit (CEREBLON BINDING KITS (PE, 64BDCRBNPEG)).
The assay was based on a homogeneous time-resolved fluorescence (HTRF) technology. When a donor and an acceptor were in close proximity, the donor transferred energy to the acceptor so that the acceptor was excited to emit an emission light 665 nm.
The donor used in the kit of the present disclosure was a europium-labeled GST antibody (GST Eu Cryptate Antibody), and the acceptor was thalidomide labeled with XL665 (Thalidomide-Red reagent). The donor bound to the CRBN protein comprising a GST label. The compound disclosed in the present patent competitively bound to the CRBN protein with thalidomide. The binding activity of the compound was determined according to the fluorescence value emitted by the acceptor at 665 nm. The stronger binding force of the compound indicated the weaker signal.
The donor and the acceptor were diluted 50-fold respectively by using a kit buffer (PROTAC binding buffer 1). The CRBN protein was diluted 45-fold. The 8 mM solution of the compound disclosed in the present patent was diluted 10-fold with 1X diluent from the kit, followed by 5-fold serial dilutions for a total of 7 consecutive dilutions.
5 µl of compound, 5 µl of diluted CRBN protein and 10 µl of donor-acceptor isovolumetric mixture were sequentially added to each well of a white 384-well plate (PE, Part number:6008280). The above system was incubated for 3 h at room temperature.
A ratio of acceptor to donor emission signals for each individual well was calculated. Ratio = signal value at 665 nm/signal value at 620 nm * 10^4 Coefficient of variation (CV) = standard deviation (SD)/average Ratio × 100 [formula]
The IC50 value was calculated based on the compound concentration, Ratio and the coefficient of variation by using GraphPad Prism. Table 10 Binding activity of compounds 1-18 to E3 ubiquitin ligase CRBN

BRD protein = target: T2, BRD protein (Homo sapiens, UniProt O60885); assay: Reduction of bromodomain protein (BRD) expression levels in MV-4-11 cells (Western blot, DC50 and Dmax); type: cell-based; conditions: BRD4 Western blot, GAPDH internal reference; for DC50: 24 hours of treatment, 0.1, 1, 10 and 20 µM; for Dmax: MV4-11, 24 hours of treatment, 0.1, 1, 10 and 20 µM
T2 construct: endogenous in cells; host or cells: MV-4-11
Procedure: The human […] MV-4-11 cells selected in this experiment were cultured in Iscove's Modified Dulbecco's Medium (IMDM) culture medium containing 10% fetal bovine serum (Gibco, USA) in an incubator under the conditions of at 37°C, 5% CO2 and 95% humidity. When the growth density reached 80%, a culture medium containing the compound was selected, and the cells were inoculated into a 6-well plate with a cell density of 1×10^6/ml, so that the final concentrations of the compound were 0.1, 1, 10 and 20 µM. After 24 hours of treatment, the cells were collected, washed twice with PBS and lysed with an RIPA lysis buffer containing a protease inhibitor and a phosphatase inhibitor. The lysed mixed solution was centrifuged to obtain a total protein extract. The concentration of the protein in the extract was detected by using a BCA method.
Protein electrophoresis was performed via SDS-PAGE, followed by constant-current electrotransfer at 200 mA for 150 min to transfer proteins onto a polyvinylidene fluoride (PVDF) membrane. The PVDF membrane was placed in 5% skim milk and blocked for 1 h at room temperature. BRD4 (#13440, CST) (1:1000) and C-MYC (ab32072, 1:1000) were added for incubation overnight at 4°C. The membrane was washed with Tris buffered saline Tween (TBST) for 3 times, with 10 min each time. The mixture of the membrane and a secondary antibody were incubated for 60 min at room temperature. The membrane was washed with TBST for 3 times, with 10 min each time. The ECL light-emitting liquid was dropwise added for exposure. Each sample was simultaneously detected using GAPDH protein as an internal reference. The protein profile was analyzed for grayscale values using analysis software ImageJ. The gray scale correction value of each sample was calculated by using the formula was used below: gray scale correction value = (target protein gray scale value/corresponding internal reference gray scale value) × 10^3Then, the calculated gray scale correction value was compared with a control gray scale correction value to calculate a degradation rate. Then, nonlinear curve fitting was performed on a logarithmic concentration-inhibition rate using Prism to obtain the DC50 and Dmax values of the compound.
Table 13 summarizes the evaluation of the reduction effects of protein degraders PRTB-01 to 16 on BRD protein expression levels. DC50 represents the concentration of the protein degrader when it induces 50% of the BRD protein to be degraded, with the level classified as A (DC50<1 µM), B (DC50 1 to 10 µM), or C (DC50>10 µM). Dmax represents the proportion of the maximum degree of […] protein degradation induced by the protein degrader to the total amount of BRD protein, with the level graded as A (Dmax>85%), B (Dmax85~50%), or C ([…]<50%) Table 13 Evaluation of protein degraders PRTB-01 to 16 in reducing BRD protein expression levels

Row | IC50 (E3 ubiquitin ligase CRBN; read-out: IC50) | DC50 (BRD protein) | Dmax (BRD protein) | Structure (SMILES) | IC50 (E3 ubiquitin ligase CRBN)
1 |  |  |  | O=C1CCC(c2ccc(N3CCC[C@@H]3CO)nn2)C(=O)N1 (stereo partly drawn) [Compound 5, 3-(6-((R)-2-(hydroxymethyl)pyrrolidin-1-yl)pyridazin-3-yl)piperidine-2,6-dione] | 50 µM
2 |  |  |  | O=C1CCC(c2ccc(N3CCC[C@H]3CO)nn2)C(=O)N1 (stereo partly drawn) [Compound 6, 3-(6-((S)-2-(hydroxymethyl)pyrrolidin-1-yl)pyridazin-3-yl)piperidine-2,6-dione] | 50 µM
3 |  |  |  | O=C1CCC(c2ccc(N3CCNCC3)nn2)C(=O)N1 (stereo not shown) [Compound 7, 3-(6-(piperazin-1-yl)pyridazin-3-yl)piperidine-2,6-dione hydrochloride salt] | 50 µM
4 |  |  |  | COc1ccc(C2CCC(=O)NC2=O)nn1 (stereo not shown) [Compound 8, 3-(6-methoxypyridazin-3-yl) piperidine-2,6-dione] | 50 µM
5 |  |  |  | Cc1cc(N2CCNCC2)nnc1C1CCC(=O)NC1=O (stereo not shown) [Compound 9, 3-(4-methyl-6-(piperazin-1-yl)pyridazin-3-yl)piperidine-2,6-dione hydrochloride salt] | 50 µM
6 |  |  |  | O=C1CCC(c2nnc(N3CCNCC3)cc2F)C(=O)N1 (stereo not shown) [Compound 13, 3-(4-fluoro-6-(piperazin-1-yl)pyridazin-3-yl)piperidine-2,6-dione hydrochloride salt] | 50 µM
7 |  |  |  | N#Cc1cc(N2CCNCC2)nnc1C1CCC(=O)NC1=O (stereo not shown) [Compound 14, 3-(2,6-dioxopiperidin-3-yl) -6-(piperazin-1-yl)pyridazine-4-carbonitrile hydrochloride salt] | 50 µM
8 |  |  |  | O=C1CCC(c2nnc(N3CCNCC3)cc2C(F)(F)F)C(=O)N1 (stereo not shown) [Compound 15, 3-(6-(piperazin-1-yl)-4-(trifluoromethyl)pyridazin-3-yl)piperidine-2,6-dione hydrochloride salt] | 50 µM
9 |  |  |  | COc1cc(N2CCNCC2)nnc1C1CCC(=O)NC1=O (stereo not shown) [Compound 16, 3-(4-methoxy-6-(piperazin-1-yl)pyridazin-3-yl)piper idine-2,6-dione hydrochloride salt] | 50 µM
10 |  |  |  | Nc1cc(N2CCNCC2)nnc1C1CCC(=O)NC1=O (stereo not shown) [Compound 17, 3-(4-amino-6-(piperazin-1-yl)pyridazin-3-yl)piperidine-2,6-dione hydrochloride salt] | 50 µM
11 | > 50 µM and 100 µM |  |  | CN(C)Cc1cc(N2CCNCC2)nnc1C1CCC(=O)NC1=O (stereo not shown) [Compound 18, 3-(4-((dimethylamino)methyl)-6-(piperazin-1-yl)pyridazin-3-yl)piperidine-2,6-dionebis hydrochloride salt] | 
12 |  |  |  | O=C1CCC(c2nnc(N3CCNCC3)cc2-c2ccccc2)C(=O)N1 (stereo not shown) [Compound 19, 3-(4-phenyl-6-(piperazin-1-yl)pyridazin-3-yl)piperidine-2,6-dione hydrochloride salt] | > 100 µM
13 |  |  |  | O=C1CCC(c2nnc(N3CCNCC3)cc2-c2ccncc2)C(=O)N1 (stereo not shown) [Compound 20, 3-(6-(piperazin-1-yl)-4-(pyridin-4-yl)pyridazin-3-yl)pi peridine-2,6-dione hydrochloride salt] | > 100 µM
14 |  |  |  | Cc1cc(C2CCC(=O)NC2=O)nnc1N1CCNCC1 (stereo not shown) [Compound 21, 3-(5-methyl-6-(piperazin-1-yl)pyridazin-3-yl)piperidine-2,6-dione hydrochloride salt] | 50 µM
15 |  | < 1 µM | > 85% | Cc1sc2c(c1C)C(c1ccc(Cl)cc1)=N[C@@H](CC(=O)NCCCCCNC(=O)COc1ccc(C3CCC(=O)NC3=O)nn1)c1nnc(C)n1-2 (stereo partly shown) [PRTB-02] | 
16 |  | 1 to 10 µM | < 50% | Cc1sc2c(c1C)C(c1ccc(Cl)cc1)=N[C@@H](CC(=O)NCCCCCCNC(=O)COc1ccc(C3CCC(=O)NC3=O)nn1)c1nnc(C)n1-2 (stereo partly shown) [PRTB-03] | 
17 |  | 1 to 10 µM | < 50% | Cc1sc2c(c1C)C(c1ccc(Cl)cc1)=N[C@@H](CC(=O)NCCCC(=O)N1CCN(c3ccc(C4CCC(=O)NC4=O)nn3)CC1)c1nnc(C)n1-2 (stereo partly shown) [PRTB-04] | 
18 |  | 1 to 10 µM | < 50% | Cc1sc2c(c1C)C(c1ccc(Cl)cc1)=N[C@@H](CC(=O)NCCCCC(=O)N1CCN(c3ccc(C4CCC(=O)NC4=O)nn3)CC1)c1nnc(C)n1-2 (stereo partly shown) [PRTB-05] | 
19 |  | 1 to 10 µM | 50 to 85% | Cc1sc2c(c1C)C(c1ccc(Cl)cc1)=N[C@@H](CC(=O)NCCOCC(=O)N1CCN(c3ccc(C4CCC(=O)NC4=O)nn3)CC1)c1nnc(C)n1-2 (stereo partly shown) [PRTB-06] | 
20 |  | > 10 µM | < 50% | Cc1sc2c(c1C)C(c1ccc(Cl)cc1)=N[C@@H](CC(=O)NCCCOCC(=O)N1CCN(c3ccc(C4CCC(=O)NC4=O)nn3)CC1)c1nnc(C)n1-2 (stereo partly shown) [PRTB-07] | 
21 |  | 1 to 10 µM | 50 to 85% | Cc1sc2c(c1C)C(c1ccc(Cl)cc1)=N[C@@H](CC(=O)NCCOCC(=O)N1CCN(c3ccc(N4CCC(=O)NC4=O)nn3)CC1)c1nnc(C)n1-2 [PRTB-08] | 
22 |  | 1 to 10 µM | 50 to 85% | Cc1cc(N2CCN(C(=O)COCCNC(=O)C[C@@H]3N=C(c4ccc(Cl)cc4)c4c(sc(C)c4C)-n4c(C)nnc43)CC2)nnc1C1CCC(=O)NC1=O (stereo partly shown) [PRTB-09] | 
23 |  | > 10 µM | < 50% | Cc1sc2c(c1C)C(c1ccc(Cl)cc1)=N[C@@H](CC(=O)NCCOCC(=O)N1CCN(c3nnc(C4CCC(=O)NC4=O)c4c3CCCC4)CC1)c1nnc(C)n1-2 (stereo partly shown) [PRTB-10] | 
24 |  | > 10 µM | < 50% | Cc1sc2c(c1C)C(c1ccc(Cl)cc1)=N[C@@H](CC(=O)NCCOCC(=O)N1CCN(c3nnc(C4CCC(=O)NC4=O)c4ccccc34)CC1)c1nnc(C)n1-2 (stereo partly shown) [PRTB-11] | 
25 |  | < 1 µM | > 85% | Cc1sc2c(c1C)C(c1ccc(Cl)cc1)=N[C@@H](CC(=O)NCCCCCOC1CN(c3ccc(C4CCC(=O)NC4=O)nn3)C1)c1nnc(C)n1-2 (stereo partly shown) [PRTB-12] | 
26 |  | < 1 µM | > 85% | Cc1sc2c(c1C)C(c1ccc(Cl)cc1)=N[C@@H](CC(=O)NCCCCCNC(=O)C#Cc1ccc(C3CCC(=O)NC3=O)nn1)c1nnc(C)n1-2 (stereo partly shown) [PRTB-13] | 
27 |  | < 1 µM | 50 to 85% | Cc1sc2c(c1C)C(c1ccc(Cl)cc1)=N[C@@H](CC(=O)NCCCn1ccc(C#Cc3ccc(C4CCC(=O)NC4=O)nn3)n1)c1nnc(C)n1-2 (stereo partly shown) [PRTB-14] | 
28 |  | < 1 µM | > 85% | Cc1sc2c(c1C)C(c1ccc(Cl)cc1)=N[C@@H](CC(=O)NCCCn1cc(C#Cc3ccc(C4CCC(=O)NC4=O)nn3)cn1)c1nnc(C)n1-2 (stereo partly shown) [PRTB-15] | 
29 |  | > 10 µM | < 50% | COc1nnc(C2CCC(=O)NC2=O)cc1N1CCN(C(=O)COCCNC(=O)C[C@@H]2N=C(c3ccc(Cl)cc3)c3c(sc(C)c3C)-n3c(C)nnc32)CC1 (stereo partly shown) [PRTB-16] | 

Row | Structure (SMILES) | IC50 (E3 ubiquitin ligase CRBN; read-out: IC50) | DC50 (BRD protein) | Dmax (BRD protein) | IC50 (E3 ubiquitin ligase CRBN)
30 | Cc1sc2c(c1C)C(c1ccc(Cl)cc1)=N[C@@H](CC(=O)NCCCCNC(=O)COc1ccc(C3CCC(=O)NC3=O)nn1)c1nnc(C)n1-2 (stereo partly shown) [PRTB-01] |  | 1 to 10 µM | < 50% | 
